Experimental data as given in patent US10342786B2, “P38 kinase inhibitors reduce DUX4 and downstream gene expression for the treatment of FSHD” (Fulcrum Therapeutics, Inc., priority 2017, dated 2019).

System: ZSCAN4, TRIM43, LEUTX, KHDC1L
Test: DUX4-regulated downstream genes by real time PCR in FSHD myotubes
Type: cell-based, human
Conditions: 1 μM ASO; FSHD myotubes vs DMSO
Procedure: For qPCR, dilute 1:10 and use 2 μL for a 10 μL 1-step RT-qPCR reaction. For detection of GAPDH, RPLPO, TBP, MYOG, FRG1, MYH3, ACTN2, etc.). Per 10 μL reaction: RNA (1:10 dilution lysate) 2 μL, Fast Advanced Taqman Master Mix (2×) 5 μL, RT enzyme mix (40×) 0.25 μL, Taqman probe set (20×) 0.5 μL, H2O 2.25 μL. The following reaction protocol was run on the QuantStudio 7: 48° C. for 15 min, 50° C. for 2 min, 95° C. for 30 sec, 40×, 95° C. for 5 sec, 60° C. for 30 sec, then plates were read as specified by the manufacturer (Thermo). For 1-step RT-Preamplification used for detection of DUX4 downstream genes, i.e. MBD3L2, ZSCAN4, LEUTX, TRIM43, KHDC1L. POL2RA-VIC was used as Endogenous control). Per 10 μL reaction: RNA (1:10 dilution lysate) 2.25 μL, Taqman Pre-Amp Master Mix (2×) 5 μL, RT enzyme mix (40×) 0.25 μL, Taqman probe set (0.2×)*2.5 μL, * Pooling the TaqMan Assays: equal volumes of each 20× TaqMan® Gene Expression Assay, up to 100 assays were combined. For example, to pool 50 TaqMan assays, 10 μL of each assay were combined in a microcentrifuge tube. The pooled TaqMan assays were diluted using 1×TE buffer so that each assay is at a final concentration of 0.2×. For the above example, add 500 μL of 1×TE buffer to the pooled TaqMan assays for a total final volume of 1 mL. The QuantStudio7 protocol was used 48° C. 15 min, 95° C. 10 min, 10 cycles: 95° C. 15 sec, 60° C. 4 min, 4° C. infinite. Samples were then diluted to 50 μL and continue with the qPCR step. Per 10 μL reaction: Preamp dilution 2 μL, Fast Advanced Taqman Master Mix (2×) 5 μL, Taqman probe set (20×) 0.5 μL, H2O 2.5 μL. When multiplexing the volume was adjusted to 10 μL total). The following program was run on the QuantStudio7: 50° C. for 2 min, 95° C. for 30 sec, 40×, 95° C. for 5 sec, 60° C. for 30 sec, plates were read as per the manufacturers specifications (Thermo).
Wild type myotubes were treated with DMSO control vehicle, and mature patient-derived FSHD myotubes that express DUX4 protein were treated with DMSO vehicle control or 1 μM of a DUX4 sequence-directed antisense oligonucleotide (ASO; FTX-2) purchased from Exiqon. After treatment, the myotubes were lysed in 19.5 μL of Roche Real Time Ready Lysis Buffer, 0.25 μL of DNAsel (Ambion, AM2222), 0.25 μL of Protector RNase Inhibitor (Roche, 3335402001), and the RNA was collected in an RNeasy Micro Kit Master Mix. Expression levels of DUX4-regulated downstream genes (ZSCAN4, TRIM43, MBD3L2, LEUTX, and KHDC1L) was determined by real time PCR (ThermoFisher Scientific, 4484262), ZSCAN4 Taqman Assay (ThermoFisher Scientific, Hs00537549 ml, FAM-MGB), MYOG Taqman Assay (ThermoFisher Scientific, Hs01072232_ml, JUN-QSY), RPLPO Taqman Assay (ThermoFisher Scientific, Hs99999902_ml), and/or LEUTX Taqman Assay (ThermoFisher Scientific, Hs00418470_ml). […]

FTX-2: DUX4 sequence-directed antisense oligonucleotide purchased from Exiqon, CAGCGTCGGAAGGTGG (SEQ ID NO: 1) (listed as DNA, chemistry not given here)
reduced amounts: KHDC1L expression | LEUTX expression | TRIM43 expression | ZSCAN4 expression
